The subject of data set [1] is Spontaneous hypertensive rats. The experiment in a line: Hypotensive action in spontaneous hypertensive rats, oral (tail artery pressure, plethysmography; Table 1). The format is in vivo, rat (spontaneous hypertensive, male). To be noted: spontaneous hypertensive rats. An excerpt: (§1) dl-α-tocopheryl 5-butylpicolinate and dl-α-tocopherol were used after they were each dissolved in a suitable amount of ethyl ether, mixed with a solution containing 2% of Tween 80 and 2% of Span 40 and after removing ethyl ether, uniformly emulsified. 5-Butylpicolinic acid was used as a solution in 2% Tween 80+2% Span.
(§2) Spontaneous hypertensive rats (male, body weight 350 to 370 g) and Wistar rats with a normal blood pressure level (female, body weight 250 to270 g), three per group, were used. Without anesthesia, the pressure of the tail artery was measured by plethysmography.

Data set [2] deals with Normotensive Wistar rats. The experiment in a line: Hypotensive action in normotensive Wistar rats, oral (tail artery pressure, plethysmography; Table 2). The settings on record: 50 mg/kg oral, normotensive Wistar rats. The format is in vivo, rat (Wistar, female).
Source text: as §1, §2

The nature of data set [3]: in vivo. The settings on record: mouse. As to the method: ddY-Strain female mice (body weight about 20 g), five per group, were used and each of the test compounds was orally or intraperitoneally administered, and two days after the administration, the number of dead mice was counted. From it, the acute toxicity LD50 of each of the compounds was determined by the Behrens-Kraerber method.

Data set [4] has as its system stomach of rats. The experiment in a line: Side-effects: gastric trouble after oral administration for 4 consecutive days. The data set is classed as in vivo, rat. The settings on record: 100 mg/kg. As to the method:
dl-α-Tocopheryl 5-butylpicolinate of the invention and 5-butylpicolinic acid as a control were administered orally to rats for 4 consecutive days at a dose of 300 mg/kg (90.9 mg/kg calculated for 5-butylpicolinic acid) and 100 mg/kg. Then, the stomach of each rat was incised and observed for the occurrence of a gastric trouble.

Each structure is given as a SMILES string.

As usually defined, the LD50 is the dose expected to kill half of the subjects tested.

As for `CCCCc1ccc(C(=O)O)nc1` [B, 5-butylpicolinic acid, reference compound], the “Blood pressure lowering rate, 1h” value in data set [1] (3.125 mg/kg oral) stood at 16.9%; in data set [1] (12.5 mg/kg oral) it was 35.7%; in data set [2] (1h) it was 27.0%. The “Blood pressure lowering rate, 2h” value in data set [1] (3.125 mg/kg oral) is 0.7%; in data set [1] (12.5 mg/kg oral), 21.7%; in data set [2] (2h), 33.5%. For the same compound, the “Blood pressure lowering rate, 3h” value in data set [1] (3.125 mg/kg oral) is given as 0%; in data set [1] (12.5 mg/kg oral), 11.8%; in data set [2] (3h), 26.2%. The “Blood pressure lowering rate, 4h” value in data set [1] (3.125 mg/kg oral), in data set [1] (12.5 mg/kg oral) and in data set [2] (4h) was 0% in each case. For the same compound, the values for the LD50 at 48 h in data set [3] (ip) and in data set [3] (po) were 89 mg/kg and 180 mg/kg, respectively. In data set [4], the “occurrence of gastric trouble” value is listed as “Light degrees of edema, congestion, or bleeding were noted in the stomachs of all cases (five rats)”.

The record behind these values is patent US4443459A, “α-Tocopheryl ester of 5-substituted picolinic acid and hypotensive composition containing it” (Banyu Pharmaceutical Co., Ltd., priority 1981, dated 1984).
